# Data: paper PMC9790248, “Effects of CYP3A Inhibition, CYP3A Induction, and Gastric Acid Reduction on the Pharmacokinetics of Ripretinib, a Switch Control KIT Tyrosine Kinase Inhibitor” (Clinical Pharmacology in Drug Development, 2022)
# Where two headings read alike, the source gives them in different places.
# Key:
# [1] = Stability in human plasma (K2EDTA), bioanalytical validation; type: in vitro ADME; conditions: with or without concomitant medications
# Protocol: Following the bioanalytical method validation guidance, the analytical method was validated to verify that the assay was a robust and reliable measurement of ripretinib and DP‐5439 in human plasma with dipotassium ethylenediaminetetraacetic acid (K2EDTA) as the anticoagulant. The linear range of method was 2.00–1000 ng/mL for both ripretinib and DP‐5439. The coefficient of variation (CV%) (precision) for intra‐ and interassay at each quality control (QC) level was ≤15.0% (≤20.0% at the LLOQ QC level: 2 ng/mL for both ripretinib and DP‐5439). The mean % Bias (accuracy) at each QC level was within ±15.0% (±20.0% at the LLOQ QC level) from its respective nominal concentration.
# [2] = Rifampin (strong CYP3A inducer) DDI study, plasma pharmacokinetics; type: in vivo, human; conditions: for AUC(0-t) / AUC(0-inf) / Cmax / half-life / Tmax: both sexes, human, plasma; for AUC(0-t) / AUC(0-inf) / Cmax / half-life: po; for Tmax: read-out: tmax, median (min, max); for Time postdose that mean plasma concentration remained above the LLOQ: LLOQ 2.00 ng/mL
# Protocol: All studies were phase 1, fixed‐sequence, open‐label studies in healthy volunteers. One study consisted of two separate cohorts examining DDIs between ripretinib and itraconazole or pantoprazole, respectively; the rifampin study was conducted separately. Studies and cohorts were enrolled independently. Eligible participants were healthy male or female adults between 18 and 55 years of age with a body mass index (BMI) of ≥18.5 and ≤30 kg/m^2. Good health was confirmed by a physician and based on medical evaluation with no significant findings, including medical history, physical examination, laboratory tests, and 12‐lead electrocardiogram (ECG) at screening and day −1. Participants were required to abstain from alcohol, marijuana, grapefruit, Seville oranges, tangelo, star fruit, and grapefruit‐like products 14 days prior to and during the study. Participants with a positive breath test for Helicobacter pylori were excluded from the pantoprazole study.
# Participants were confined to the study center from days −1 through 22 for the collection of plasma PK samples and all study procedures. Participants received an oral dose of ripretinib 100 mg on day 1 under fasting conditions; a higher dose of ripretinib was used than in the itraconazole or pantoprazole study due to the potential for decreased ripretinib exposure when coadministered with a strong CYP3A inducer (Figure 1B). On day 8, participants received oral doses of rifampin 600 mg once daily 1 hour before a meal with a full glass of water for 14 consecutive days through day 21. On day 18, participants received a second dose of ripretinib 100 mg administered simultaneously with rifampin 600 mg under fasting conditions. Blood samples for PK analysis were collected at predose and 1, 2, 3, 4, 5, 8, 10, 12, 24, 36, 48, 72, and 96 hours after administration of ripretinib on days 1 and 18. Safety was assessed throughout the study period and with a follow‐up phone call on day 29 or 7 days after discontinuation in the case of early withdrawal.
# Ripretinib and its active metabolite DP‐5439 plasma concentrations were measured using a validated high‐performance liquid chromatography (HPLC) with tandem mass spectrometry (LC‐MS/MS) assay with a lower limit of quantification (LLOQ) of 2.00 ng/mL for both analytes. In this method, the analytes (ripretinib and DP‐5439) and the internal standards (ISs; DCC‐2618‐d5 and DP‐5439‐d5) were released from human plasma samples by protein precipitation. The supernatants were chromatographed using reversed‐phase HPLC with a Betasil® C8 analytical column with deionized water (0.1% formic acid) and 40/60 acetonitrile/acetone (0.1% formic acid) as the mobile phase. Mass spectrometric detection was performed on a triple quadrupole tandem mass spectrometer API 5000 or API 5500 (Applied Biosystems/MDS Sciex, Toronto, Canada) equipped with a turbo ion spray source operated in the positive ionization mode. The source parameters were collision energy 40 eV, collision gas 6 psi, Nebulizer Gas 1, Turbo IonSpray Gas 2, and curtain gas 35 psi. Quantification was obtained by using multiple reaction monitoring mode of the transitions of mass to charge ratio [m/z] 510.3 →417 for DCC‐2618 (ripretinib), m/z 496.2 →403 for DP‐5439, m/z 515.3 →417 for DCC‐2618‐d5, and m/z 501.2 →403 for DP‐5439‐d5.
# Plasma concentration–time data were analyzed using noncompartmental methods using Phoenix® WinNonlin® v7.0 (Certara USA Inc., Princeton, New Jersey). Derived PK parameters included area under the concentration–time curve from time 0 to time t (AUC0–t) and area under the concentration–time curve from 0 to infinity (AUC0–∞), maximum observed concentration (Cmax), time of maximum observed concentration (tmax), elimination half‐life (t1/2), apparent systemic clearance, and for DP‐5439, metabolite to parent ratio for AUC0–t, AUC0–∞, and Cmax. […]
# [3] = cited from earlier work
# [4] = Safety assessment (TEAEs), itraconazole study
# Protocol: On days 8 through 10, participants received itraconazole 200 mg once daily with a meal or snack. On day 11, participants received ripretinib 50 mg 1 hour after itraconazole 200 mg under fasting conditions. On days 12 through 17, participants received itraconazole 200 mg once daily with a meal or snack. […] Safety was assessed throughout and a follow‐up safety phone call was conducted at day 24 or 7 days after the last dose of study drug if participants withdrew early.
# TEAEs were defined as adverse events (AEs) that occurred/worsened during or after administration of any of the study drugs. Relationship to study drug was assessed by the investigator. The safety population included all enrolled participants who received ≥1 dose of ripretinib.
# Participant demographics, clinical characteristics, and PK parameters were summarized using descriptive statistics. Safety data were summarized as n (%). […] PK parameters were calculated using Phoenix® WinNonlin® v7.0 or higher (Certara USA Inc.).
# [5] = ripretinib 100 mg single oral dose + rifampin 600 mg QD, fasting, healthy participants (N = 21)
# [6] = ripretinib 100 mg single oral dose alone, fasting, healthy participants (rifampin study, N = 21)
# [7] = ripretinib 100 mg with rifampin 600 mg QD relative to ripretinib alone
# [8] = ripretinib 100 mg with rifampin 600 mg QD relative to ripretinib alone, listed as ripretinib
# [9] = 20 mg once daily up to 150 mg once daily
# [10] = itraconazole study: ripretinib 50 mg alone and with itraconazole 200 mg QD, safety population N = 20
smiles,measurement,setting,value
CCn1c(=O)c(-c2cc(NC(=O)Nc3ccccc3)c(F)cc2Br)cc2cnc(NC)cc21 [Ripretinib],Stability in human plasma at room temperature,[1]; 16 hours at room temperature under normal laboratory lighting,stable
same,"Stability in human plasma, freeze–thaw",[1]; four cycles of freeze (−20 and −70°C) and thaw (room temperature),stable
same,AUC(0-t),"[2]; 100 mg, ripretinib 100 mg single oral dose alone, fasting, healthy participants (rifampin study, N = 21), read-out: AUC0–t, arithmetic mean (SD)",6620 ng·h/mL
same,AUC(0-t),"[2]; 100 mg, ripretinib 100 mg single oral dose alone, fasting, healthy participants (rifampin study, N = 21), read-out: AUC0–t, geometric mean (CV%)",5720 ng·h/mL
same,AUC(0-inf),"[2]; 100 mg, ripretinib 100 mg single oral dose alone, fasting, healthy participants (rifampin study, N = 21), read-out: AUC0–∞, arithmetic mean (SD)",6220 ng·h/mL
same,AUC(0-inf),"[2]; 100 mg, ripretinib 100 mg single oral dose alone, fasting, healthy participants (rifampin study, N = 21), read-out: AUC0–∞, geometric mean (CV%)",5820 ng·h/mL
same,Cmax,"[2]; 100 mg, ripretinib 100 mg single oral dose alone, fasting, healthy participants (rifampin study, N = 21), read-out: Cmax, arithmetic mean (SD)",392 ng/mL
same,Cmax,"[2]; 100 mg, ripretinib 100 mg single oral dose alone, fasting, healthy participants (rifampin study, N = 21), read-out: Cmax, geometric mean (CV%)",363 ng/mL
same,half-life,"[2]; 100 mg, ripretinib 100 mg single oral dose alone, fasting, healthy participants (rifampin study, N = 21), read-out: t1/2, arithmetic mean (SD) (converted)",15 h
same,half-life,"[2]; 100 mg, ripretinib 100 mg single oral dose alone, fasting, healthy participants (rifampin study, N = 21), read-out: t1/2, geometric mean (CV%) (converted)",15 h
same,AUC(0-t),"[2]; ripretinib 100 mg single oral dose + rifampin 600 mg QD, fasting, healthy participants (N = 21), read-out: AUC0–t, arithmetic mean (SD)",2360 ng·h/mL
same,AUC(0-t),"[2]; ripretinib 100 mg single oral dose + rifampin 600 mg QD, fasting, healthy participants (N = 21), read-out: AUC0–t, geometric mean (CV%)",2230 ng·h/mL
same,AUC(0-inf),"[2]; ripretinib 100 mg single oral dose + rifampin 600 mg QD, fasting, healthy participants (N = 21), read-out: AUC0–∞, arithmetic mean (SD)",2400 ng·h/mL
same,AUC(0-inf),"[2]; ripretinib 100 mg single oral dose + rifampin 600 mg QD, fasting, healthy participants (N = 21), read-out: AUC0–∞, geometric mean (CV%)",2270 ng·h/mL
same,Cmax,"[2]; ripretinib 100 mg single oral dose + rifampin 600 mg QD, fasting, healthy participants (N = 21), read-out: Cmax, arithmetic mean (SD)",321 ng/mL
same,Cmax,"[2]; ripretinib 100 mg single oral dose + rifampin 600 mg QD, fasting, healthy participants (N = 21), read-out: Cmax, geometric mean (CV%)",299 ng/mL
same,half-life,"[2]; ripretinib 100 mg single oral dose + rifampin 600 mg QD, fasting, healthy participants (N = 21), read-out: t1/2, arithmetic mean (SD) (converted)",7 h
same,half-life,"[2]; ripretinib 100 mg single oral dose + rifampin 600 mg QD, fasting, healthy participants (N = 21), read-out: t1/2, geometric mean (CV%) (converted)",7 h
same,Tmax,[2]; [5],3 h
same,Tmax,[2]; [6],3 h
same,"Exposure when combined with rifampin, relative to ripretinib alone",[2]; ripretinib 100 mg + rifampin 600 mg QD,less than half
same,Time postdose that mean plasma concentration remained above the LLOQ,[2]; ripretinib 100 mg alone (rifampin study),up to 96 hours
same,"CL/F, arithmetic mean (SD)",[2]; [5],47 (16) L/h
same,"CL/F, geometric mean (CV%)",[2]; [5],44 (35) L/h
same,"t1/2, geometric mean (CV%)",[2]; [5],6 (46) h
same,"CL/F, arithmetic mean (SD)",[2]; [6],18 (7) L/h
same,"CL/F, geometric mean (CV%)",[2]; [6],17 (39) L/h
same,Geometric LS mean ratio of AUC0–t,[2]; [7],39%
same,Geometric LS mean ratio of AUC0–∞ (90% CI),[2]; [7],39 (35–44) %
same,Geometric LS mean ratio of Cmax (90% CI),[2]; [7],82 (72–94) %
same,Geometric LS mean ratio of AUC0–∞ (90% CI),[2]; [8],39%
same,Geometric LS mean ratio of Cmax (90% CI),[2]; [8],82%
same,Time postdose that mean plasma concentration remained above the LLOQ,[2]; ripretinib 100 mg with rifampin,approximately 36 hours
same,Dose proportionality of AUC,[3]; [9],generally proportional to dose
same,Dose proportionality of Cmax,[3]; [9],less than dose proportional
same,Time to maximum plasma concentrations,"[3]; cancer patients, after a single dose",approximately 4 hours
same,Time to reach steady-state conditions,[3]; cancer patients,≤ 14 days
same,Accumulation ratio,[3]; once-daily dosing of 150 mg,approximately 1.7
same,Maximum tolerated dose,"[3]; patients with cancer, doses up to ripretinib 200 mg twice daily",not reached
same,"Steady-state PK exposure, 150 mg twice daily compared with 150 mg once daily",[3]; patients,approximately 2 fold
same,Deaths and serious AEs,"[4]; itraconazole study, N = 20",No deaths occurred and no participants experienced serious AEs
same,Number of TEAEs attributed to study drug,"[4]; itraconazole study, N = 20",36
same,Participants with TEAEs attributed to study drug per the investigator,"[4]; itraconazole study, N = 20",13 (65%) n (%)
same,Total number of TEAEs,"[4]; itraconazole study, N = 20",44
same,Participants reporting any TEAE,[4]; [10],14 (70.0) n (%)
same,TEAE: ALT increase,[4]; [10],1 (5.0) n (%)
same,TEAE: AST increase,[4]; [10],0 n (%)
same,TEAE: Abdominal discomfort,[4]; [10],0 n (%)
same,TEAE: Abdominal pain,[4]; [10],3 (15.0) n (%)
same,TEAE: Abdominal pain lower,[4]; [10],1 (5.0) n (%)
same,TEAE: Amylase increase,[4]; [10],4 (20.0) n (%)
same,TEAE: Constipation,[4]; [10],1 (5.0) n (%)
same,TEAE: Diarrhea,[4]; [10],4 (20.0) n (%)
same,TEAE: Fatigue,[4]; [10],1 (5.0) n (%)
same,TEAE: Headache,[4]; [10],2 (10.0) n (%)
same,TEAE: Lipase increase,[4]; [10],5 (25.0) n (%)
same,TEAE: Nausea,[4]; [10],2 (10.0) n (%)
same,TEAE: Vomiting,[4]; [10],1 (5.0) n (%)
same,Participants reporting any TEAE,"[4]; itraconazole study: ripretinib 50 mg alone and with itraconazole 200 mg QD, safety population N = 20, listed as ripretinib",14 (70%) n (%)
